Our source for the IC50 values is US20060079453A1, “Hla binding peptides and their uses” (priority 2002, published 2006).

Targets include HLA-A*0301 (Homo sapiens, UniProt P04439); HLA-A*1101 (Homo sapiens, UniProt P04439, A114D/D185E/E176A/F33Y/L180Q/S129P/T187R); HLA-A*3301 (Homo sapiens, UniProt P04439, A270S/D185E/E176V/E277Q/E87N/F33T/G231S/H175R/I121M/I218V/I322F/K168Q/K210R/L300P/L318F/M331R/P217A/Q86R/Q94H/R138Q/T323A/T345S/T97I/V358M/Y195H); HLA-A*3101 (Homo sapiens, UniProt P04439, A270S/D185E/E176V/E277Q/F33T/G231S/G80R/H175R/I121M/I218V/I322F/K168Q/L300P/L318F/M331R/P217A/Q94H/R138Q/T323A/T345S/T97I/V358M).

Assay in all cases: biochemical
What all share (type): binding

No end group written: not given here. Where only a bound is given, the exact number is not on record here.

In the case of RLLSKISEYK, the IC50 on HLA-A*0301 is 15 nM; on HLA-A*1101, 65 nM; against HLA-A*3301, 40000 nM; against HLA-A*3101 it was 158 nM.
Turning to TVQGPGPGEK, the IC50 is 218 nM against HLA-A*0301, 3.4 nM on HLA-A*1101, 103000 nM at HLA-A*3301 and 9870 nM against HLA-A*3101.
MFQDPQERPRK: the IC50 was 15500 nM on HLA-A*0301, 8570 nM against HLA-A*1101, 419 nM against HLA-A*3301 and 604 nM at HLA-A*3101.
For AQPATADYK, the IC50 worked out at 3500 nM at HLA-A*0301, 109 nM on HLA-A*1101 and 58900 nM against HLA-A*3301.
For SQVSNSDSYK, the IC50 is 1660 nM at HLA-A*0301, 83 nM at HLA-A*1101, over 17400 nM at HLA-A*3301 and 24600 nM against HLA-A*3101.
Consider VQLDIQSTR, for which the figures for the IC50 against HLA-A*0301, against HLA-A*1101 and against HLA-A*3301 were 15100 nM, 2920 nM and 4590 nM, respectively.
As to CFLFYSKVRK, the 50% inhibitory concentration (IC50) at HLA-A*1101 was determined as 96 nM; on HLA-A*3301 it was 315 nM; on HLA-A*3101 it was 81 nM.
For the sequence RTLSKISEYR, the IC50 was determined as 77 nM against HLA-A*0301, 100 nM against HLA-A*1101, 189 nM on HLA-A*3301 and 52 nM against HLA-A*3101.
Regarding AVGPGPGLK, the IC50 turned out to be 18 nM against HLA-A*0301, 3.6 nM on HLA-A*1101, 75800 nM against HLA-A*3301 and 128 nM against HLA-A*3101.
Consider GVNHQHLPK, for which the IC50 amounted to 26 nM against HLA-A*0301, 7.7 nM against HLA-A*1101 and 15600 nM against HLA-A*3301.
With GVGPGPGLK, the IC50 on HLA-A*0301 was 47 nM; on HLA-A*1101 it was 4 nM; against HLA-A*3301, over 112000 nM.
In the case of CLLFYSKVRR, the IC50 on HLA-A*1101 is 204 nM; against HLA-A*3301, 386 nM; against HLA-A*3101, 159 nM.
Take AVDGPGPGK: the IC50 was 19 nM at HLA-A*1101, over 112000 nM against HLA-A*3301 and 36800 nM on HLA-A*3101.
With RVLSKISEYR, the IC50 against HLA-A*0301 turned out to be 34 nM; at HLA-A*1101 it was 84 nM; against HLA-A*3301, 197 nM; against HLA-A*3101, 24 nM.
On the same counts, the results for VTGPGPGPVWK are 2900 nM, 24 nM, over 103000 nM and 13000 nM.
For the sequence ALERLLSLKK, the IC50 amounted to 822 nM at HLA-A*1101, 18300 nM against HLA-A*3301 and 33600 nM against HLA-A*3101.
Consider KAGPGGYPRK, for which the IC50 against HLA-A*0301 is 62 nM; against HLA-A*1101, 43 nM; against HLA-A*3301 it was over 17800 nM; against HLA-A*3101, 10700 nM.
Turning to HGAITSSNTK, the figures for the IC50 on HLA-A*0301, at HLA-A*3301 and at HLA-A*3101 were 2840 nM, over 22900 nM and over 16100 nM, respectively.
The like results for DVSHFLKEK were, in that order, over 9300 nM, 232 nM and over 17800 nM.
For the sequence LTYRDDFPY, the IC50 was 8260 nM against HLA-A*0301, 82 nM against HLA-A*1101, 20200 nM against HLA-A*3301 and over 71100 nM at HLA-A*3101.
Regarding TTLEKLTNR, the IC50 on HLA-A*0301 turned out to be 1990 nM; at HLA-A*1101, 817 nM; at HLA-A*3301 it was 37 nM; on HLA-A*3101, 42 nM.
For the sequence KFLEERVKK, the IC50 against HLA-A*0301 was 5340 nM; against HLA-A*1101 it was 2230 nM; on HLA-A*3301, 9740 nM; on HLA-A*3101, 30 nM.
PVVCSMEYK: the figures for the IC50 against HLA-A*1101, against HLA-A*3301 and at HLA-A*3101 were 80 nM, 22600 nM and 331000 nM, respectively.
Take TFVHEIELK: the half-maximal inhibitory concentration (IC50) against HLA-A*0301 was determined as 4430 nM; at HLA-A*3301 it was 4130 nM; on HLA-A*3101, 8410 nM.
On to VSIRVGGQTR, for which the results for the IC50 against HLA-A*1101, against HLA-A*3301 and against HLA-A*3101 were 241 nM, 8590 nM and 466 nM, respectively.
Turning to FVDLTIVYR, the IC50 at HLA-A*0301 was 29700 nM; on HLA-A*1101, 5310 nM; against HLA-A*3301, 430 nM; against HLA-A*3101 it was 2380 nM.
